In this experiment the target is T1, ERα protein (HiBiT-tagged) in ESR1_HiBiT KI MCF7 cells (Homo sapiens, UniProt P03372).
T1 sequence (P03372 1-595): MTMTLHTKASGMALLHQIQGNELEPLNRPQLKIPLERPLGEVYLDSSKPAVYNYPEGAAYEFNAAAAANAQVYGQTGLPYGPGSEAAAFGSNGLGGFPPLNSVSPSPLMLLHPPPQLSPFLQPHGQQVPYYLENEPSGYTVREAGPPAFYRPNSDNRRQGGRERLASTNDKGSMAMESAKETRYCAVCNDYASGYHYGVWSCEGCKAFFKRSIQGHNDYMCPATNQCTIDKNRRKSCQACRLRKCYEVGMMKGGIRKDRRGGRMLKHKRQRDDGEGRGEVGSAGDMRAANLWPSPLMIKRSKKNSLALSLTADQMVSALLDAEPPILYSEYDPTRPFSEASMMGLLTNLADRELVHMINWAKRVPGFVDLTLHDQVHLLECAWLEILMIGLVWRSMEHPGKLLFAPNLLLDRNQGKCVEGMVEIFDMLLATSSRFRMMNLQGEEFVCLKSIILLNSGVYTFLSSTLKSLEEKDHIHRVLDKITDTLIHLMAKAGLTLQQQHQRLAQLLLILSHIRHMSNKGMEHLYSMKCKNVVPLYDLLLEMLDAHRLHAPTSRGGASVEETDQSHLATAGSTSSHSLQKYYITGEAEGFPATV
As to the kind of experiment: Nano Glo HiBiT Lytic Degradation Assay. Format: cell-based. The note with it: 6 hours with compound, 14-point dose response 1:3, bell-shape curve fit, half-maximal effect of first Hill model, read-out: MCF7 ESR1 HiBiT - (DC50). The method, boiled down:
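ESR1_HiBiT knock-in MCF7 cells were seeded 24 h before treatment, then exposed to compounds for 6 h at 37° C (14-point 1:3 curves, 10 mM top stock, 0.1% DMSO final, duplicates). HiBiT-ERα was read by lytic LgBiT luminescence, background-subtracted and normalized to DMSO. DC50 was taken from the half-maximal point of the first Hill component of a bell-shaped fit.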
Consider `O=C1CC[C@H](N2Cc3cc(N4CCN(CC5CCN(c6ccc([C@H]7c8ccc(O)cc8CC[C@H]7CC7CCCC7)cc6)CC5)CC4)ccc3C2=O)C(=O)N1` [Compound I-120, (S)-3-(5-(4-((1-(4-((1S,2S)-2-(cyclopentylmethyl)-6-hydroxy-1,2,3,4-tetrahydronaphthalen-1-yl)phenyl)piperidin-4-yl)methyl)piperazin-1-yl)-1-oxoisoindolin-2-yl)piperidine-2,6-dione], for which the half-maximal degradation concentration (DC50) was at least 10000 nM.
Regarding `O=C1CCC(c2ccc(N3CCN(C4CCN(c5ccc([C@@H]6c7ccc(O)cc7CC[C@@H]6c6ccccc6)cc5)CC4)CC3)cc2)C(=O)N1` (single isomer, unassigned) [Compound I-40], the DC50 was 370 nM.
In the case of `C[C@@]1(C2CCCCC2)OCc2cc(O)ccc2[C@@H]1c1ccc(N2CCC(CN3CCN(c4ccc5c(c4)CN([C@H]4CCC(=O)NC4=O)C5=O)CC3)CC2)cc1` (single isomer, unassigned) [Compound I-256] it was 18 nM.
For the compound `C[C@H](C1CCN(c2ccc([C@@H]3c4ccc(O)cc4CC[C@@H]3c3ccccc3)cc2)CC1)N1CCN(c2ccc3c(c2)CN(C2CCC(=O)NC2=O)C3=O)CC1` (single isomer, unassigned) [II-69], the half-maximal degradation concentration (DC50) stood at 0.51 nM.
In the case of `O=C1CC[C@H](N2Cc3cc(N4CCN(CC5CCN(c6ccc([C@@H]7c8ccc(O)cc8CC[C@@H]7C7CCOCC7)cc6)CC5)CC4)ccc3C2=O)C(=O)N1` [Compound I-32, (3S)-3-[5-[4-[[1-[4-[(1R,2R)-6-hydroxy-2-tetrahydropyran-4-yl-tetralin-1-yl]phenyl]-4-piperidyl]methyl]piperazin-1-yl]-1-oxo-isoindolin-2-yl]piperidine-2,6-dione] it was 0.45 nM.
Consider `O=C1CC[C@H](N2Cc3cc(N4CCN(CC5CCN(c6ccc([C@H]7c8ccc(O)cc8CC[C@H]7c7ccccc7)c(F)c6)CC5)CC4)ccc3C2=O)C(=O)N1` [II-85], for which the DC50 was 1090 nM.
Then `Cc1cc(F)cc(C)c1[C@@H]1CCc2cc(O)ccc2[C@@H]1c1ccc(N2CCC(CN3CCN(c4ccc5c(c4)CN([C@H]4CCC(=O)NC4=O)C5=O)CC3)CC2)cc1` [II-71], with at least 10000 nM.
Then `O=C1CC[C@H](N2Cc3cc(N4CCN(CC5CCN(c6ccc([C@H]7c8ccc(O)cc8CC[C@H]7c7ccccn7)cc6)CC5)CC4)ccc3C2=O)C(=O)N1` [Compound I-114, (3S)-3-[5-[4-[[1-[4-[(1S,2R)-6-hydroxy-2-(2-pyridyl)tetralin-1-yl]phenyl]-4-piperidyl]methyl]piperazin-1-yl]-1-oxo-isoindolin-2-yl]piperidine-2,6-dione], with at least 10000 nM; and `O=C1CCC(N2Cc3cc(C4CCN(CC5CCN(c6ccc([C@@H]7c8ccc(O)cc8CC[C@@H]7c7ccccc7)cc6)CC5)CC4)ccc3C2=O)C(=O)N1` (some centres unmarked) [II-105], with at least 10000 nM; and `Cc1cc([C@@H]2CCc3cc(O)ccc3[C@@H]2c2ccc(N3CCC(CN4CCN(c5ccc6c(c5)CN([C@H]5CCC(=O)NC5=O)C6=O)CC4)CC3)cc2)n(C)n1` (single isomer, unassigned) [Compound I-415], with 0.02 nM.
Then `Cn1c(=O)n([C@H]2CCC(=O)NC2=O)c2ccc(N3CCN(CC4CCN(c5ccc([C@@H]6c7ccc(O)cc7C(F)(F)C[C@@H]6c6ccccc6)cc5)CC4)CC3)cc21` (single isomer, unassigned) [Compound I-277], with 0.3 nM; and `O=C1CC[C@H](N2Cc3cc(N4CCN(CC5CCN(c6ccc([C@@H]7c8ccc(O)cc8CC[C@@H]7c7ccccc7)nc6)CC5)CC4)ccc3C2=O)C(=O)N1` [II-78], with 1.37 nM; and `O=C1CC[C@H](N2Cc3cc(N4CCN(C[C@@H]5CCCN(c6ccc([C@@H]7c8ccc(O)cc8CC[C@@H]7c7ccccc7)cc6)C5)CC4)ccc3C2=O)C(=O)N1` (single isomer, unassigned) [II-20], with at least 10000 nM.
Take `O=C1CC[C@H](N2Cc3cc(N4C[C@@H]5C[C@H]4CN5CC4CCN(c5ccc([C@H]6c7ccc(O)cc7CC[C@H]6c6ccccc6)cc5)CC4)ccc3C2=O)C(=O)N1` [II-8]: the DC50 is at least 10000 nM.
`O=C1CC[C@H](N2Cc3cc(N4CCN(CC5CCN(c6ccc([C@H]7c8ccc(O)cc8CO[C@]78CCc7ccccc78)cc6)CC5)CC4)ccc3C2=O)C(=O)N1` [Compound I-267, (S)-3-(5-(4-((1-(4-((1R,4′S)-7′-hydroxy-2,3-dihydrospiro[indene-1,3′-isochroman]-4′-yl)phenyl)piperidin-4-yl)methyl)piperazin-1-yl)-1-oxoisoindolin-2-yl)piperidine-2,6-dione]: the 50% degradation concentration (DC50) was determined as 4 nM.
As to `O=C1CCC(N2Cc3cc([C@@H]4CCN(CC5CCN(c6ccc([C@@H]7c8ccc(O)cc8CC[C@@H]7c7ccccc7)cc6)CC5)CC4(F)F)ccc3C2=O)C(=O)N1` (single isomer, unassigned) [II-91], the DC50 worked out at 20 nM.
Then `O=C1CCC(c2ccc(N3CC[C@@H]4[C@H]3CCN4CC3CCN(c4ccc([C@@H]5c6ccc(O)cc6CC[C@@H]5c5ccccc5)cc4)CC3)cc2)C(=O)N1` (stereo partly drawn) [Compound I-176, 3-(4-((3aR,6aR)-4-((1-(4-((1R,2S)-6-hydroxy-2-phenyl-1,2,3,4-tetrahydronaphthalen-1-yl)phenyl)piperidin-4-yl)methyl)hexahydropyrrolo[3,2-b]pyrrol-1 (2H)-yl)phenyl)piperidine-2,6-dione], with 3300 nM.
Then `O=C1CC[C@H](N2Cc3cc(N4CCC(CN5CCC(n6cc([C@@H]7c8ccc(O)cc8CC[C@@H]7c7ccccc7)cn6)CC5)CC4)ccc3C2=O)C(=O)N1` (single isomer, unassigned) [Compound I-409], with at least 10000 nM.
Take `COc1cccc([C@H]2OCc3cc(O)ccc3[C@H]2c2ccc(N3CCC(CN4CCN(c5ccc6c(c5)CN([C@H]5CCC(=O)NC5=O)C6=O)CC4)CC3)cc2)c1` [Compound I-373, (S)-3-(5-(4-((1-(4-((3S,4R)-7-hydroxy-3-(3-methoxyphenyl)isochroman-4-yl)phenyl)piperidin-4-yl)methyl)piperazin-1-yl)-1-oxoisoindolin-2-yl)piperidine-2,6-dione]: the half-maximal degradation concentration (DC50) amounted to 0.78 nM.
Then `CC(C)C[C@@H]1CC(F)(F)c2cc(O)ccc2[C@@H]1c1ccc(N2CCC(CN3CCN(c4ccc5c(c4)CN([C@H]4CCC(=O)NC4=O)C5=O)CC3)CC2)cc1` [Compound I-220, (S)-3-(5-(4-((1-(4-((1S,2R)-4,4-difluoro-6-hydroxy-2-isobutyl-1,2,3,4-tetrahydronaphthalen-1-yl)phenyl)piperidin-4-yl)methyl)piperazin-1-yl)-1-oxoisoindolin-2-yl)piperidine-2,6-dione], with 14 nM.
For the compound `Cc1cc(F)c([C@H]2OCc3cc(O)ccc3[C@H]2c2ccc(N3CCC(CN4CCN(c5ccc6c(c5)CN([C@H]5CCC(=O)NC5=O)C6=O)CC4)CC3)cc2)cc1F` [Compound I-369, (S)-3-(5-(4-((1-(4-((3S,4R)-3-(2,5-difluoro-4-methylphenyl)-7-hydroxyisochroman-4-yl)phenyl)piperidin-4-yl)methyl)piperazin-1-yl)-1-oxoisoindolin-2-yl)piperidine-2,6-dione], the 50% degradation concentration (DC50) came out at 0.34 nM.
In the case of `O=C1CC[C@H](N2Cc3cc(N4CCN(C[C@H]5CCN(c6ccc([C@@H]7c8ccc(O)cc8CC[C@@H]7c7ccccc7)cc6)C5)CC4)ccc3C2=O)C(=O)N1` (single isomer, unassigned) [II-13] it was 18 nM; in that of `O=C1CC[C@H](N2Cc3cc(N4CCN(CC5CCN(c6ccc([C@@H]7c8ccc(O)cc8C(F)(F)C[C@@H]7C7CCCCC7)cc6)CC5)CC4)ccc3C2=O)C(=O)N1` [Compound I-99, (S)-3-(5-(4-((1-(4-((1R,2R)-2-cyclohexyl-4,4-difluoro-6-hydroxy-1,2,3,4-tetrahydronaphthalen-1-yl)phenyl)piperidin-4-yl)methyl)piperazin-1-yl)-1-oxoisoindolin-2-yl)piperidine-2,6-dione], 0.67 nM; in that of `O=C1CCC(c2ccc(N3CCN(CCC4CCN(c5ccc([C@H]6c7ccc(O)cc7CC[C@H]6c6ccccc6)cc5)CC4)CC3)cc2)C(=O)N1` (single isomer, unassigned) [Compound I-42], at least 10000 nM.
Then `O=C1CC[C@H](N2Cc3cc(N4CCN(CC5CCN(c6ccc([C@@H]7c8ccc(O)cc8CC[C@@H]7C7CCCCC7)nc6)CC5)CC4)ccc3C2=O)C(=O)N1` [Compound I-149, (S)-3-(5-(4-((1-(6-((1S,2R)-2-cyclohexyl-6-hydroxy-1,2,3,4-tetrahydronaphthalen-1-yl)pyridin-3-yl)piperidin-4-yl)methyl)piperazin-1-yl)-1-oxoisoindolin-2-yl)piperidine-2,6-dione], with 0.82 nM; and `O=C1CC[C@H](N2Cc3cc(N4CCN(CC5CCN(c6ccc([C@H]7c8ccc(O)cc8CO[C@@]78CCCc7ccccc78)cc6)CC5)CC4)ccc3C2=O)C(=O)N1` (single isomer, unassigned) [Compound I-273], with 6 nM.

The values are drawn from US20250388565A1, “ESTROGEN RECEPTOR ALPHA DEGRADERS AND METHODS OF USE THEREOF” (Relay Therapeutics, Inc., priority 2022, published 2025).
